Structures can show the parent of a compound that is named as a salt.
Settings: instrument: DT, single field, calibrated with Agilent tune mix (Agilent)

SMILES: Nc1ccccc1C(=O)O [Anthranilic acid]
- collision cross section (N2) ([M+H-H2O]+): 118.8 Å²
- collision cross section (N2) ([M-H]-): 123.99 Å²

SMILES: CCCCC/C=C\C/C=C\C/C=C\C/C=C\CCCC(=O)O [Arachidonic Acid]
- collision cross section (N2) ([M-H]-): 178.94 Å²

SMILES: CC(=O)NCCCC[C@H](N)C(=O)O [N6-Acetyl-L-lysine]
- collision cross section (N2) ([M+H]+): 142.3 Å²
- collision cross section (N2) ([M-H]-): 139.75 Å²

SMILES: O=C(O)[C@H]1C[C@@H](O)CN1 [cis-4-Hydroxy-D-proline]
- collision cross section (N2) ([M+H]+): 128.4 Å²
- collision cross section (N2) ([M-H]-): 122.02 Å²

SMILES: CC(=O)Nc1ccn([C@@H]2O[C@H](CO)[C@@H](O)[C@H]2O)c(=O)n1 [N4-Acetylcytidine]
- collision cross section (N2) ([M+H]+): 162.7 Å²
- collision cross section (N2) ([M-H]-): 161.4 Å²

SMILES: O=C(/C=C/c1ccc(O)c(O)c1)O[C@H](Cc1ccc(O)c(O)c1)C(=O)O [Rosmarinic Acid]
- collision cross section (N2) ([M+Na]+): 195.6 Å²
- collision cross section (N2) ([M-H]-): 170.26 Å²

SMILES: O=C(O)[C@H]1CCCN1 [D-Proline]
- collision cross section (N2) ([M+H]+): 125 Å²
- collision cross section (N2) ([M-H]-): 122.49 Å²

SMILES: O=C(COP(=O)(O)O)[C@H](O)[C@H](O)COP(=O)(O)O [D-Ribulose 1,5-bisphosphate]
- collision cross section (N2) ([M+Na-2H]-): 150.9 Å²
- collision cross section (N2) ([M+Na]+): 163.3 Å²

SMILES: CC(=O)[C@H]1CC[C@H]2[C@@H]3CC=C4C[C@@H](OS(=O)(=O)O)CC[C@]4(C)[C@H]3CC[C@]12C [pregnenolone sulfate]
- collision cross section (N2) ([M-H]-): 203.91 Å²

SMILES: Nc1ncnc2c1ncn2[C@H]1C[C@H](O)[C@@H](CO)O1 [Deoxyadenosine]
- collision cross section (N2) ([M+H]+): 152.3 Å²
- collision cross section (N2) ([M-H]-): 152.2 Å²

SMILES: CC/C=C\C/C=C\C/C=C\CCCCCCCC(=O)O [alpha-Linolenic acid]
- collision cross section (N2) ([M+H]+): 170.7 Å²
- collision cross section (N2) ([M-H]-): 173.07 Å²

SMILES: Nc1nc(=O)c2c([nH]1)NCC1CN(c3ccc(C(=O)NC(CCC(=O)O)C(=O)O)cc3)CN21 (centres undefined) [5,10-methylene-THF]
- collision cross section (N2) ([M-H]-): 192.06 Å²

SMILES: C[C@]12CC[C@@H]3c4ccc(O)cc4CC[C@H]3[C@@H]1CCC2=O [Estrone]
- collision cross section (N2) ([M+H]+): 164.3 Å²
- collision cross section (N2) ([M-H]-): 170.63 Å²

SMILES: Cc1ncc(COP(=O)(O)O)c(C=O)c1O [Pyridoxal 5'-phosphate]
- collision cross section (N2) ([M+H]+): 151.4 Å²
- collision cross section (N2) ([M-H]-): 146.34 Å²

SMILES: O=C1O[C@H](CO)[C@@H](O)[C@H](O)[C@H]1O [D-Glucono-1,5-lactone]
- collision cross section (N2) ([M-H]-): 130.59 Å²

SMILES: CCCCCCCCCCCCCCCCCCCC(=O)O [Arachidic acid]
- collision cross section (N2) ([M-H]-): 183.41 Å²

SMILES: OC1OC[C@@H](O)[C@H](O)[C@H]1O (stereo partly drawn) [D-Xylose]
- collision cross section (N2) ([M+Na]+): 134.6 Å²

SMILES: C[C@H](O)[C@H](O)C1=Nc2c([nH]c(N)nc2=O)NC1 [7,8-Dihydrobiopterin]
- collision cross section (N2) ([M+H]+): 154.1 Å²

SMILES: O=P(O)(O)OC[C@H]1O[C@@H](O)C[C@@H]1O [2-Deoxyribose 5-phosphate]
- collision cross section (N2) ([M-H]-): 132.47 Å²

SMILES: Nc1nc(=O)c2ncn([C@@H]3O[C@H](COP(=O)(O)OP(=O)(O)O)[C@@H](O)[C@H]3O)c2[nH]1 [GDP]
- collision cross section (N2) ([M+H]+): 191.5 Å²

SMILES: NC(N)=NCC(=O)O [Guanidoacetic acid]
- collision cross section (N2) ([M+H]+): 124.8 Å²

SMILES: Nc1ncnc2c1ncn2[C@@H]1O[C@H](COP(=O)(O)OP(=O)(O)O)[C@@H](O)[C@H]1O [Adenosine 5'-diphosphate]
- collision cross section (N2) ([M+H]+): 186.1 Å²

SMILES: O=C(O)C(COP(=O)(O)O)OP(=O)(O)O [2,3-Diphospho-D-glyceric acid]
- collision cross section (N2) ([M+Na]+): 152.3 Å²

SMILES: CNc1nc(=O)c2ncn([C@@H]3O[C@H](CO)[C@@H](O)[C@H]3O)c2[nH]1 [2-Methylguanosine]
- collision cross section (N2) ([M+Na-2H]-): 166.02 Å²
- collision cross section (N2) ([M+Na]+): 178.4 Å²

SMILES: COc1cc(C=O)ccc1O [Vanillin]
- collision cross section (N2) ([M+H]+): 129.7 Å²
- collision cross section (N2) ([M-H]-): 124.3 Å²

SMILES: CCCCCCCCCCCCCCCCCC(=O)SCCNC(=O)CCNC(=O)[C@H](O)C(C)(C)COP(=O)(O)OP(=O)(O)OC[C@H]1O[C@@H](n2cnc3c(N)ncnc32)[C@H](O)[C@@H]1OP(=O)(O)O [Stearoyl-CoA]
- collision cross section (N2) ([M+H]+): 302.9 Å²
- collision cross section (N2) ([M-H]-): 301.81 Å²

SMILES: CC(=O)Nc1ccccc1 [N-Phenylacetamide]
- collision cross section (N2) ([M-H]-): 124.17 Å²

SMILES: CCCCCCCCCCCCCCCCCCCCCC(=O)O [Behenic acid]
- collision cross section (N2) ([M-H]-): 191.18 Å²

SMILES: Cn1cc(CCN)c2ccccc21 [1-Methyltryptamine]
- collision cross section (N2) ([M+Na]+): 139 Å²

SMILES: C[C@@H]1OC(O)[C@@H](O)[C@H](O)[C@@H]1O (stereo partly drawn) [L-Fucose]
- collision cross section (N2) ([M+Na]+): 144.6 Å²

Source: the C3SDB collision cross section collection
